According to the supplement of paper PMC10307832:

What was measured:
Test in all cases: relative viability (nuclei count vs DMSO), 5 days (fraction); higher = more cells survive
Dabrafenib + Foretinib = compound: CC(C)(C)c1nc(-c2cccc(NS(=O)(=O)c3c(F)cccc3F)c2F)c(-c2ccnc(N)n2)s1 [Dabrafenib] + COc1cc2c(Oc3ccc(NC(=O)C4(C(=O)Nc5ccc(F)cc5)CC4)cc3F)ccnc2cc1OCCCN1CCOCC1 [Foretinib] (partner 0.25 µM)
How it was run: (§1)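 Nuclei were stained with Hoechst during a one-step fixation (final 0.05% Triton X-100, 1% formaldehyde, 1 ug/ml Hoechst) carried out 5 days after dosing, then counted on 4× images. The cells, lung cancer lines in 1536-well plates, had been dosed by pin tool the day after seeding with one drug alone or a fixed anchor-drug dose plus five library-drug doses (not always all listed) in √10 steps. Relative viability is the nuclei count in treated wells divided by that in vehicle wells, and each value is the median of duplicate plates.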

VX-702 + OSI-027 = compound: NC(=O)c1ccc(N(C(N)=O)c2c(F)cccc2F)nc1-c1ccc(F)cc1F [VX-702] + COc1cccc2cc(-c3nc([C@H]4CC[C@H](C(=O)O)CC4)n4ncnc(N)c34)[nH]c12 [OSI-027] (partner 0.5 µM)
How it was run: as §1

VX-702 + Lapatinib = compound: NC(=O)c1ccc(N(C(N)=O)c2c(F)cccc2F)nc1-c1ccc(F)cc1F [VX-702] + CS(=O)(=O)CCNCc1ccc(-c2ccc3ncnc(Nc4ccc(OCc5cccc(F)c5)c(Cl)c4)c3c2)o1 [Lapatinib] (partner 2 µM)
How it was run: as §1

VX-702 + Pemetrexed = compound: NC(=O)c1ccc(N(C(N)=O)c2c(F)cccc2F)nc1-c1ccc(F)cc1F [VX-702] + Nc1nc2[nH]cc(CCc3ccc(C(=O)N[C@@H](CCC(=O)O)C(=O)O)cc3)c2c(=O)[nH]1 [Pemetrexed] (partner 0.2 µM)
How it was run: as §1

| Cell Line | relative viability (Dabrafenib + Foretinib; first compound 0.003 µM) | relative viability (Dabrafenib + Foretinib; first compound 0.009487 µM) | relative viability (Dabrafenib + Foretinib; first compound 0.03 µM) | relative viability (Dabrafenib + Foretinib; first compound 0.09487 µM) | relative viability (Dabrafenib + Foretinib; first compound 0.3 µM) | relative viability (VX-702 + OSI-027; first compound 0.02 µM) | relative viability (VX-702 + OSI-027; first compound 0.2 µM) | relative viability (VX-702 + OSI-027; first compound 0.6325 µM) | relative viability (VX-702 + OSI-027; first compound 2 µM) | relative viability (VX-702 + Lapatinib; first compound 0.02 µM) | relative viability (VX-702 + Lapatinib; first compound 0.2 µM) | relative viability (VX-702 + Lapatinib; first compound 0.6325 µM) | relative viability (VX-702 + Lapatinib; first compound 2 µM) | relative viability (VX-702 + Pemetrexed; first compound 0.02 µM) | relative viability (VX-702 + Pemetrexed; first compound 0.2 µM) | relative viability (VX-702 + Pemetrexed; first compound 0.6325 µM) | relative viability (VX-702 + Pemetrexed; first compound 2 µM) |
| --- | --- | --- | --- | --- | --- | --- | --- | --- | --- | --- | --- | --- | --- | --- | --- | --- | --- |
| HOP-62 | 1.12 | 1.1 | 1.16 | 0.969 | 1.12 | 0.88 | 0.859 | 0.831 | 0.982 | 1.04 | 0.894 | 1.08 | 0.975 | 0.365 | 0.311 | 0.284 | 0.309 |
| IA-LM | 1.13 | 1.08 | 1.08 | 0.977 | 1.13 | – | – | – | – | 0.789 | 0.738 | 0.77 | 0.761 | – | – | – | – |
| LC-2-ad | – | 1.09 | 0.82 | 0.922 | 1.1 | 0.844 | 0.814 | 0.999 | 0.949 | 0.892 | 0.972 | 1.01 | 1.03 | 0.275 | 0.271 | 0.269 | 0.274 |
| LCLC-97TM1 | 0.938 | 0.99 | 0.972 | 0.864 | 0.953 | 0.424 | 0.595 | 0.37 | 0.404 | 0.908 | 0.786 | 1.3 | 0.947 | 0.167 | 0.171 | 0.141 | 0.193 |
| LCLC-103H | 0.762 | 0.791 | 0.737 | 0.804 | 0.849 | 0.49 | 0.485 | 0.417 | 0.458 | – | – | – | – | 0.503 | 0.445 | 0.469 | 0.469 |
| LK-2 | 1.14 | 1.17 | – | 1.28 | 1.26 | 0.21 | 0.211 | 0.167 | 0.183 | 0.986 | 0.727 | 0.891 | 0.895 | 0.277 | 0.272 | 0.236 | 0.247 |
| LOU-NH91 | 0.858 | 1.01 | 0.894 | 0.918 | 0.958 | 0.767 | 0.734 | 0.751 | 0.528 | 0.789 | 0.645 | 0.639 | 0.675 | 0.383 | 0.366 | 0.385 | 0.412 |
| LU99A | 0.942 | 0.702 | 0.715 | 0.756 | 0.79 | 0.339 | 0.323 | 0.312 | 0.283 | 0.948 | 1.02 | 0.987 | 0.982 | 0.173 | 0.164 | 0.184 | 0.16 |
| LXF-289 | 1.01 | 1.03 | 0.993 | 0.931 | 1.01 | 0.786 | 0.784 | 0.772 | 0.683 | 0.965 | 0.876 | 0.912 | 0.922 | 0.935 | 0.894 | 0.9 | 0.947 |
| NCI-H23 | – | 1.04 | 0.906 | 0.878 | 0.873 | 0.604 | 0.643 | 0.688 | 0.559 | 1.12 | 1.01 | 1.04 | 1.25 | 0.655 | 0.654 | 0.714 | 0.774 |
| NCI-H322M | – | 1.19 | 0.75 | 0.879 | 0.945 | 0.567 | 0.517 | 0.566 | 0.62 | 0.58 | 0.616 | 0.583 | 0.674 | 0.61 | 0.611 | 0.633 | 0.578 |
| NCI-H358 | 0.662 | 0.862 | 0.815 | 0.771 | 0.76 | 0.867 | 0.845 | 0.711 | 0.794 | 0.485 | 0.442 | 0.484 | 0.546 | 0.176 | 0.172 | 0.168 | 0.173 |
| NCI-H441 | – | 1.11 | 0.941 | 1.05 | 0.843 | 0.564 | 0.547 | 0.5 | 0.544 | – | – | – | – | 0.24 | 0.233 | 0.273 | 0.238 |
| NCI-H460 | 0.949 | 1.01 | 0.961 | 0.933 | 0.993 | 0.712 | 0.644 | 0.693 | 0.55 | 0.931 | 0.906 | 1.14 | 0.984 | 0.0627 | 0.0509 | 0.055 | 0.057 |
| NCI-H520 | 0.909 | 0.78 | 0.455 | 0.74 | 0.661 | 0.321 | 0.287 | 0.268 | 0.23 | 0.809 | 1.05 | 0.798 | 1.05 | 0.713 | 0.486 | 0.636 | 0.765 |
| NCI-H522 | – | – | – | – | – | 0.649 | 0.718 | 0.681 | 0.747 | – | – | – | – | 1.08 | 0.891 | 0.971 | 0.999 |
| NCI-H727 | – | 0.886 | 0.601 | 0.947 | 1.1 | 0.721 | 0.614 | 0.543 | 0.642 | 0.88 | 0.671 | 0.818 | 0.911 | – | – | – | – |
| NCI-H1299 | 1.05 | 1.09 | 1.07 | 1.03 | 1.08 | – | – | – | – | 1.02 | 0.965 | 1.03 | 1.06 | – | – | – | – |
| NCI-H1623 | – | 0.869 | 0.846 | 0.829 | 1.12 | 0.403 | 0.406 | 0.424 | 0.43 | – | – | – | – | – | – | – | – |
| NCI-H1648 | – | – | – | – | – | 0.278 | 0.275 | 0.251 | 0.253 | – | – | – | – | 0.737 | 0.617 | 0.75 | 0.818 |
| NCI-H1703 | 0.354 | 0.327 | 0.34 | 0.334 | 0.447 | – | – | – | – | 1.2 | 0.931 | 0.647 | 1.21 | – | – | – | – |
| NCI-H1792 | – | – | – | – | – | 0.667 | 0.669 | 0.682 | 0.683 | 0.965 | 0.811 | 0.97 | 1.08 | 0.815 | 0.777 | 0.881 | 0.862 |
| NCI-H2342 | 1.04 | 1.18 | 0.954 | 1.09 | 1.2 | 0.632 | 0.651 | 0.644 | 0.692 | – | – | – | – | 0.771 | 0.857 | 0.796 | 0.796 |
